Source: the supplement of paper PMC10307832

Columns and labels:
Test in all cases: relative viability (nuclei count vs DMSO), 5 days (fraction); higher = more cells survive
LU99A = system: LU99A
Outline: (§1)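 A single step with final 0.05% Triton X-100, 1% formaldehyde and 1 ug/ml Hoechst fixed the cells and stained nuclei 5 days after treatment. Lung cancer cell lines in 1536-well plates had been treated by pin tool the day after seeding with one drug alone or a fixed anchor-drug dose plus five library-drug doses (not always all listed) in √10 steps, and nuclei were counted on 4× images. Relative viability is the ratio of nuclei in treated wells to nuclei in vehicle wells, taken as the median of duplicate plates.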

NCI-H596 = system: NCI-H596
Outline: as §1

LCLC-103H = system: LCLC-103H
Outline: as §1

HCC-44 = system: HCC-44
Outline: as §1

PC-3 [JPC-3] = system: PC-3 [JPC-3]
Outline: as §1

201T = system: 201T
Outline: as §1

NCI-H727 = system: NCI-H727
Outline: as §1

NCI-H23 = system: NCI-H23
Outline: as §1

LCLC-97TM1 = system: LCLC-97TM1
Outline: as §1

NCI-H460 = system: NCI-H460
Outline: as §1

A-427 = system: A-427
Outline: as §1

NCI-H2228 = system: NCI-H2228
Outline: as §1

H3255 = system: H3255
Outline: as §1

LK-2 = system: LK-2
Outline: as §1

NCI-H1793 = system: NCI-H1793
Outline: as §1

NCI-H2347 = system: NCI-H2347
Outline: as §1

NCI-H1563 = system: NCI-H1563
Outline: as §1

PC-14 = system: PC-14
Outline: as §1

COR-L23 = system: COR-L23
Outline: as §1

LC-2-ad = system: LC-2-ad
Outline: as §1

SW 1573 = system: SW 1573
Outline: as §1

Q: With `O=c1cc(-c2cccc3c2Sc2ccccc2S3)oc(N2CCOCC2)c1` + Cc1nc(NC(=O)N2CCC[C@H]2C(N)=O)sc1-c1ccnc(C(C)(C)C(F)(F)F)c1 [Alpelisib] (partner 2 µM) as the compound, how does the relative viability (LU99A; first compound 0.08 µM) read?
A: 0.507

Q: What about the relative viability (LU99A; first compound 0.253 µM) of the same compound?
A: 0.567

Q: What about the relative viability (LU99A; first compound 0.8 µM) of the same compound?
A: 0.747

Q: What about the relative viability (LU99A; first compound 2.53 µM) of the same compound?
A: 0.504

Q: And the relative viability (LU99A; first compound 8 µM)?
A: 0.575

Q: What about the relative viability (NCI-H596; first compound 0.08 µM) of the same compound?
A: 0.588

Q: What about the relative viability (NCI-H596; first compound 0.253 µM) of the same compound?
A: 0.55

Q: What about the relative viability (NCI-H596; first compound 0.8 µM) of the same compound?
A: 0.5

Q: What about the relative viability (NCI-H596; first compound 2.53 µM) of the same compound?
A: 0.469

Q: What about the relative viability (NCI-H596; first compound 8 µM) of the same compound?
A: 0.594

Q: What about the relative viability (LCLC-103H; first compound 0.08 µM) of the same compound?
A: 0.994

Q: What about the relative viability (LCLC-103H; first compound 0.253 µM) of the same compound?
A: 1.06

Q: And the relative viability (LCLC-103H; first compound 0.8 µM)?
A: 0.837

Q: What about the relative viability (LCLC-103H; first compound 2.53 µM) of the same compound?
A: 0.971

Q: And the relative viability (LCLC-103H; first compound 8 µM)?
A: 0.963

Q: And the relative viability (HCC-44; first compound 0.08 µM)?
A: 0.811

Q: What about the relative viability (HCC-44; first compound 0.253 µM) of the same compound?
A: 0.904

Q: And the relative viability (HCC-44; first compound 0.8 µM)?
A: 0.689

Q: And the relative viability (HCC-44; first compound 2.53 µM)?
A: 0.685

Q: And the relative viability (HCC-44; first compound 8 µM)?
A: 0.753

Q: And the relative viability (PC-3 [JPC-3]; first compound 0.08 µM)?
A: 0.994

Q: What about the relative viability (PC-3 [JPC-3]; first compound 0.253 µM) of the same compound?
A: 1.04

Q: What about the relative viability (PC-3 [JPC-3]; first compound 0.8 µM) of the same compound?
A: 1.07

Q: And the relative viability (PC-3 [JPC-3]; first compound 2.53 µM)?
A: 0.958

Q: And the relative viability (PC-3 [JPC-3]; first compound 8 µM)?
A: 1.03

Q: And the relative viability (201T; first compound 0.08 µM)?
A: 0.98

Q: What about the relative viability (201T; first compound 0.253 µM) of the same compound?
A: 1.04

Q: And the relative viability (201T; first compound 0.8 µM)?
A: 1.02

Q: What about the relative viability (201T; first compound 2.53 µM) of the same compound?
A: 0.953

Q: And the relative viability (201T; first compound 8 µM)?
A: 0.913

Q: What about the relative viability (NCI-H727; first compound 0.253 µM) of the same compound?
A: 0.553

Q: What about the relative viability (NCI-H727; first compound 2.53 µM) of the same compound?
A: 0.47

Q: What about the relative viability (NCI-H727; first compound 8 µM) of the same compound?
A: 0.761

Q: And the relative viability (NCI-H23; first compound 0.08 µM)?
A: 0.562

Q: What about the relative viability (NCI-H23; first compound 0.253 µM) of the same compound?
A: 0.801

Q: And the relative viability (NCI-H23; first compound 0.8 µM)?
A: 0.752

Q: What about the relative viability (NCI-H23; first compound 2.53 µM) of the same compound?
A: 0.603

Q: And the relative viability (NCI-H23; first compound 8 µM)?
A: 0.72

Q: And the relative viability (LCLC-97TM1; first compound 0.08 µM)?
A: 0.238

Q: And the relative viability (LCLC-97TM1; first compound 0.253 µM)?
A: 0.27

Q: And the relative viability (LCLC-97TM1; first compound 0.8 µM)?
A: 0.323

Q: What about the relative viability (LCLC-97TM1; first compound 2.53 µM) of the same compound?
A: 0.205

Q: And the relative viability (LCLC-97TM1; first compound 8 µM)?
A: 0.218

Q: And the relative viability (NCI-H460; first compound 0.08 µM)?
A: 0.472

Q: And the relative viability (NCI-H460; first compound 0.253 µM)?
A: 0.682

Q: What about the relative viability (NCI-H460; first compound 0.8 µM) of the same compound?
A: 0.451

Q: What about the relative viability (NCI-H460; first compound 2.53 µM) of the same compound?
A: 0.57

Q: What about the relative viability (NCI-H460; first compound 8 µM) of the same compound?
A: 0.394

Q: And the relative viability (A-427; first compound 0.08 µM)?
A: 1.04

Q: And the relative viability (A-427; first compound 0.253 µM)?
A: 1.04

Q: What about the relative viability (A-427; first compound 0.8 µM) of the same compound?
A: 1.14

Q: And the relative viability (A-427; first compound 2.53 µM)?
A: 0.987

Q: And the relative viability (A-427; first compound 8 µM)?
A: 1.05

Q: And the relative viability (NCI-H2228; first compound 0.08 µM)?
A: 0.75

Q: What about the relative viability (NCI-H2228; first compound 0.253 µM) of the same compound?
A: 0.846

Q: And the relative viability (NCI-H2228; first compound 0.8 µM)?
A: 0.828

Q: What about the relative viability (NCI-H2228; first compound 2.53 µM) of the same compound?
A: 0.561

Q: And the relative viability (NCI-H2228; first compound 8 µM)?
A: 0.737

Q: And the relative viability (H3255; first compound 0.08 µM)?
A: 0.631

Q: What about the relative viability (H3255; first compound 0.253 µM) of the same compound?
A: 0.755

Q: What about the relative viability (H3255; first compound 0.8 µM) of the same compound?
A: 0.637

Q: What about the relative viability (H3255; first compound 2.53 µM) of the same compound?
A: 0.653

Q: And the relative viability (H3255; first compound 8 µM)?
A: 0.797

Q: What about the relative viability (LK-2; first compound 0.08 µM) of the same compound?
A: 1.22

Q: What about the relative viability (LK-2; first compound 0.253 µM) of the same compound?
A: 1.11

Q: What about the relative viability (LK-2; first compound 0.8 µM) of the same compound?
A: 1.49

Q: And the relative viability (LK-2; first compound 2.53 µM)?
A: 0.995

Q: And the relative viability (LK-2; first compound 8 µM)?
A: 1.75

Q: What about the relative viability (NCI-H1793; first compound 0.08 µM) of the same compound?
A: 0.498

Q: What about the relative viability (NCI-H1793; first compound 0.253 µM) of the same compound?
A: 0.782

Q: What about the relative viability (NCI-H1793; first compound 0.8 µM) of the same compound?
A: 0.692

Q: What about the relative viability (NCI-H1793; first compound 2.53 µM) of the same compound?
A: 0.55

Q: What about the relative viability (NCI-H1793; first compound 8 µM) of the same compound?
A: 0.689

Q: What about the relative viability (NCI-H2347; first compound 0.08 µM) of the same compound?
A: 1.03

Q: What about the relative viability (NCI-H2347; first compound 0.253 µM) of the same compound?
A: 1.14

Q: And the relative viability (NCI-H2347; first compound 0.8 µM)?
A: 1.1

Q: What about the relative viability (NCI-H2347; first compound 2.53 µM) of the same compound?
A: 1.11

Q: And the relative viability (NCI-H2347; first compound 8 µM)?
A: 1.16

Q: And the relative viability (NCI-H1563; first compound 0.08 µM)?
A: 0.917

Q: And the relative viability (NCI-H1563; first compound 0.253 µM)?
A: 1.04

Q: What about the relative viability (NCI-H1563; first compound 0.8 µM) of the same compound?
A: 0.853

Q: What about the relative viability (NCI-H1563; first compound 2.53 µM) of the same compound?
A: 0.848

Q: And the relative viability (NCI-H1563; first compound 8 µM)?
A: 0.822

Q: What about the relative viability (PC-14; first compound 0.08 µM) of the same compound?
A: 0.936

Q: What about the relative viability (PC-14; first compound 0.253 µM) of the same compound?
A: 1.17

Q: And the relative viability (PC-14; first compound 0.8 µM)?
A: 1.11

Q: And the relative viability (PC-14; first compound 2.53 µM)?
A: 0.821

Q: And the relative viability (PC-14; first compound 8 µM)?
A: 1.05

Q: And the relative viability (COR-L23; first compound 0.08 µM)?
A: 0.867

Q: And the relative viability (COR-L23; first compound 0.253 µM)?
A: 1.15

Q: What about the relative viability (COR-L23; first compound 0.8 µM) of the same compound?
A: 0.887

Q: What about the relative viability (COR-L23; first compound 2.53 µM) of the same compound?
A: 0.786

Q: And the relative viability (COR-L23; first compound 8 µM)?
A: 0.984

Q: What about the relative viability (LC-2-ad; first compound 0.08 µM) of the same compound?
A: 0.884

Q: And the relative viability (LC-2-ad; first compound 0.253 µM)?
A: 0.908

Q: What about the relative viability (LC-2-ad; first compound 0.8 µM) of the same compound?
A: 0.844

Q: What about the relative viability (LC-2-ad; first compound 2.53 µM) of the same compound?
A: 0.806

Q: What about the relative viability (LC-2-ad; first compound 8 µM) of the same compound?
A: 0.75

Q: What about the relative viability (SW 1573; first compound 0.08 µM) of the same compound?
A: 0.719

Q: What about the relative viability (SW 1573; first compound 0.253 µM) of the same compound?
A: 0.785

Q: And the relative viability (SW 1573; first compound 0.8 µM)?
A: 0.667

Q: And the relative viability (SW 1573; first compound 2.53 µM)?
A: 0.803

Q: And the relative viability (SW 1573; first compound 8 µM)?
A: 0.657
